Earlier results as cited in patent US20230165856A1, “DAPAGLIFLOZIN AND AMBRISENTAN FOR THE PREVENTION AND TREATMENT OF COVID-19” (AstraZeneca AB, priority 2020, published 2023).
Where two headings read alike, the source gives them in different places.

Experiments:
[1] = target: T1, endothelin A (ETA) receptor (Homo sapiens, UniProt P25101)
T1 sequence (P25101 21-427): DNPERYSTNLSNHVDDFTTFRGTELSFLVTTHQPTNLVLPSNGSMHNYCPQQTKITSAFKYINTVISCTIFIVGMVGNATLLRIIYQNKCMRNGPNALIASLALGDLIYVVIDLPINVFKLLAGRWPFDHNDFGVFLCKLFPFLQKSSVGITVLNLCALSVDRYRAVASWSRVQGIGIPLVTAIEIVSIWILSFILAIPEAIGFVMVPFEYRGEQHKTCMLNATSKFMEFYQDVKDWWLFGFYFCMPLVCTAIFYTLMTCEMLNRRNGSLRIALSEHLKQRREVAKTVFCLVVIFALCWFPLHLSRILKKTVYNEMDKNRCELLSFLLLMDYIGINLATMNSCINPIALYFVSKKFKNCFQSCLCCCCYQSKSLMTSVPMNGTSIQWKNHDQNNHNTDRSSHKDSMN

[2] = human, in vivo
[3] = experimental pig model of acute lung injury
[4] = endotoxaemic sheep
[5] = HF patients with and without type 2 diabetes mellitus

SMILES: COC(c1ccccc1)(c1ccccc1)[C@H](Oc1nc(C)cc(C)n1)C(=O)O [Ambrisentan, (2S)-2-[(4,6-dimethylpyrimidin-2-yl)oxy]-3-methoxy-3,3-diphenylpropanoic acid]
- selectivity for the ETA versus the ETB receptor [1]: approximately 4000 fold
- selectivity for the ET-A receptor compared to bosentan ([1]; compared to bosentan): greater selectivity

SMILES: COc1ccccc1Oc1c(NS(=O)(=O)c2ccc(C(C)(C)C)cc2)nc(-c2ncccn2)nc1OCCO [Bosentan]
- RVSP [2]: rapid and sustained improvement
- oxygenation [2]: gradual improvement

SMILES: COc1cc(OC)nc(O[C@H](C(=O)O)C(OC)(c2ccccc2)c2ccccc2)n1 [LU-135252]
- oxygenation [3]: improved oxygenation

SMILES: COc1ccccc1Oc1c(NS(=O)(=O)c2ccc(C(C)C)cn2)nc(-c2ccnc(-c3nnn[nH]3)c2)nc1OCCO [Tezosentan]
- lung injury [4]: attenuated lung injury

SMILES: CCOc1ccc(Cc2cc([C@@H]3O[C@H](CO)[C@@H](O)[C@H](O)[C@H]3O)ccc2Cl)cc1 [dapagliflozin]
- cardiovascular (CV) death [5]: reduced
- risk for hospitalization for heart failure (HF) [5]: reduce the risk
